Experimental data reported in the supplement of paper PMC11003180.

What was measured:
Experiment in all cases: drug sensitivity score (DSS) from 5-dose viability curve (DSS (area-based score, 0 = no response)); higher = more sensitive (stronger viability inhibition); extreme values may be limits of the assay
[1] = test system: MDCK wild-type - doxycycline; settings: doxycycline: none; 72 h
Outline: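 Parental MDCK cells without doxycycline were dispensed at 2000 cells/well onto pre-spotted 384-well plates. The plates held an oncology library of 528 drugs at five doses (1-10,000 nM) and were incubated 72 h at 37 °C. Viability was read as CellTiter-Glo luminescence and scaled per plate between vehicle and positive controls. Drug sensitivity scores came from dose-response curve fits in the Breeze pipeline.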

[2] = test system: MDCK p60AmotL2-inducible + doxycycline (p60AmotL2 expressing); settings: doxycycline: 10 ng/mL; 72 h
Outline: (§1)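 Pre-spotted 384-well plates held 528 oncology drugs, each at five doses from 1 to 10,000 nM. Parental and doxycycline-inducible MDCK cells, exposed beforehand to 10 ng/mL doxycycline in the medium, were added at 2000 cells/well and incubated 72 h at 37 °C. Viability came from CellTiter-Glo luminescence normalized per plate to vehicle and positive controls, and the Breeze pipeline fitted dose-response curves to give drug sensitivity scores.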

[3] = test system: MDCK wild-type + doxycycline; settings: doxycycline: 10 ng/mL; 72 h
Outline: as §1

Row | SMILES | drug sensitivity score [1] | drug sensitivity score [2] | drug sensitivity score [3]
1 | Nc1ncnc2c1nc(N)n2[C@@H]1O[C@H](CO)[C@@H](O)[C@H]1O [8-amino-adenosine] | 18.2 | 19.8 | 18.2
2 | CC(C)N(C[C@H]1O[C@@H](n2cnc3c(N)ncnc32)[C@H](O)[C@@H]1O)[C@H]1C[C@@H](CCc2nc3cc(C(C)(C)C)ccc3[nH]2)C1 [Pinometostat] | 0 | 0 | 0
3 | CCn1c(=O)c(-c2ccc(Cl)cc2Cl)cc2cnc(Nc3ccc(N4CCNCC4)c(F)c3)nc21 [FRAX486] | 1.7 | 2.3 | 0
4 | c1cc(CN2CCCNCCNCCCNCC2)ccc1CN1CCCNCCNCCCNCC1 [Plerixafor] | 0 | 0.1 | 0
5 | COc1ncc(-c2ccc3nccc(-c4ccnnc4)c3c2)cc1NS(=O)(=O)c1ccc(F)cc1F [Omipalisib] | 14.5 | 20.2 | 14.2
6 | C[C@@H]1C[C@H]2[C@@H]3CCC4=CC(=O)C=C[C@]4(C)[C@@]3(F)[C@@H](O)C[C@]2(C)[C@@]1(O)C(=O)CO [Dexamethasone] | 0 | 0 | 0
7 | Nc1cc(C(F)(F)F)c(-c2cc(N3CCOCC3)nc(N3CCOCC3)n2)cn1 [Buparlisib] | 5.1 | 6.3 | 7
8 | Cc1cc(OCc2nnc(SC3CCCC3)n2-c2cccnc2)ccc1-c1ccc(S(C)(=O)=O)cc1 [NMS-873] | 12.8 | 14.7 | 13.5
9 | Nc1cccc2c1C(=O)N(C1CCC(=O)NC1=O)C2=O (stereo unspecified) [Pomalidomide] | 0 | 0 | 0
10 | COc1cc(CCc2cc(NC(=O)c3ccc(N4CC(C)NC(C)C4)cc3)n[nH]2)cc(OC)c1 (stereo unspecified) [AZD4547] | 0 | 0 | 0
11 | NC(=O)N1CCC(CC(=O)N2CCC([C@H]3c4ncc(Br)cc4CCc4cc(Cl)cc(Br)c43)CC2)CC1 [Lonafarnib] | 8.6 | 14.6 | 9.9
12 | CC[C@H](NC(=O)[C@H](C)NC)C(=O)N1C[C@@H](O)C[C@H]1Cc1c(-c2[nH]c3cc(F)ccc3c2C[C@@H]2C[C@H](O)CN2C(=O)[C@H](CC)NC(=O)[C@H](C)NC)[nH]c2cc(F)ccc12 [Birinapant] | 0 | 0 | 0
13 | Cn1cc(-c2cnn3c(N)c(Br)c([C@@H]4CCCNC4)nc23)cn1 [MK-8776] | 0 | 0 | 0
14 | CC1=C2C[C@H]3[C@@H](CC[C@@H]4C[C@H](NS(C)(=O)=O)CC[C@@]43C)[C@@H]2CC[C@@]2(C1)O[C@@H]1C[C@H](C)CN[C@H]1[C@H]2C [Saridegib] | 0 | 0.8 | 0
15 | CC1(COc2ccc3c(c2)ncn3-c2ccc3cccc(N4CCC(N)CC4)c3n2)COC1 [Crenolanib] | 5.4 | 6.5 | 8.1
16 | CNc1nc(-c2ccc3c(N)n[nH]c3c2)cc(N2C[C@@H](C(=O)NC3CCCCC3)CC[C@H]2C)n1 | 0 | 0 | 0
17 | CO[C@H]1C(=O)[C@]2(C)[C@@H](OC)C[C@H]3OC[C@@]3(OC(C)=O)[C@H]2[C@H](OC(=O)c2ccccc2)[C@]2(O)C[C@H](OC(=O)[C@H](O)[C@@H](NC(=O)OC(C)(C)C)c3ccccc3)C(C)=C1C2(C)C [Cabazitaxel] | 33.8 | 38 | 37.7
18 | Cn1cc(CNCC2CCN(c3ncc(C(=O)NO)cn3)CC2)c2ccccc21 [Quisinostat] | 9.8 | 12.7 | 8.6
19 | COc1cc(OC)c(/C=C/S(=O)(=O)Cc2ccc(OC)c(NCC(=O)O)c2)c(OC)c1 [Rigosertib] | 24 | 26.8 | 26.5
20 | CCc1cncnc1N1CCN(Cc2nc3ccc(C(F)(F)F)cc3[nH]2)CC1 | 0 | 0 | 0
21 | Cc1cccc(-c2nn3c(c2-c2ccnc4ccc(C(N)=O)cc24)CCC3)n1 [Galunisertib] | 0 | 0 | 0

Row | SMILES | drug sensitivity score [1] | drug sensitivity score [2] | drug sensitivity score [3]
22 | CC(C)(C)c1cc(NC(=O)Nc2ccc(-c3cn4c(n3)sc3cc(OCCN5CCOCC5)ccc34)cc2)no1 [Quizartinib] | 3.3 | 3.9 | 3
23 | CN1CC[C@H](c2c(O)cc(O)c3c(=O)cc(-c4ccccc4Cl)oc23)[C@H](O)C1 [Alvocidib] | 21.5 | 18.3 | 20.9
24 | CN1CCN(c2ccc3nc(-c4c(N)c5c(F)cccc5[nH]c4=O)[nH]c3c2)CC1 [Dovitinib] | 0 | 0 | 2.5
25 | CCN(CC)CCNC(=O)c1c(C)[nH]c(/C=C2\C(=O)Nc3ccc(-c4csc(-c5ccccc5)n4)cc32)c1C [Amcasertib] | 0 | 0 | 0
26 | CC1(C)CNc2cc(NC(=O)c3cccnc3NCc3ccncc3)ccc21 [Motesanib] | 0 | 0 | 0
27 | C=C1C[C@@H]2[C@H](CC[C@]3(C)C(=O)CC[C@@H]23)[C@@]2(C)C=CC(=O)C=C12 [Exemestane] | 0 | 0 | 0
28 | Cn1nccc1Nc1nccc(-c2ccn([C@H](CO)c3ccc(Cl)c(F)c3)c(=O)c2)n1 [Ravoxertinib] | 0 | 0.2 | 0
29 | NC(=S)N/N=C/c1ncccc1N [Triapine] | 4.7 | 3.9 | 3.6
30 | CC(=O)Nc1cccc(-n2c(=O)n(C3CC3)c(=O)c3c(Nc4ccc(I)cc4F)n(C)c(=O)c(C)c32)c1 [Trametinib] | 6.6 | 15.8 | 7.4
31 | FC(F)(F)c1ccc(CNc2ccc(Cc3c[nH]c4ncc(Cl)cc34)cn2)cn1 [Pexidartinib] | 0 | 0.1 | 0
32 | CNCc1ccc(-c2[nH]c3cc(F)cc4c3c2CCNC4=O)cc1 [Rucaparib] | 0 | 0 | 0
33 | CC1(C)CC[C@]2(NC(=O)C(C)(F)F)CC[C@]3(C)[C@H](C(=O)C=C4[C@@]5(C)C=C(C#N)C(=O)C(C)(C)[C@@H]5CC[C@]43C)[C@@H]2C1 [Omaveloxolone] | 17 | 16.7 | 16.3
34 | CCOCc1nc2c(N)nc3ccccc3c2n1CC(C)(C)O [Resiquimod] | 0 | 0 | 0
35 | C/C=C1\NC(=O)[C@H]2CSSCC/C=C/[C@H](CC(=O)N[C@H](C(C)C)C(=O)N2)OC(=O)[C@H](C(C)C)NC1=O [Romidepsin] | 18.1 | 24.9 | 19.7
36 | O=C(c1ccc(C(=O)N2CCC(N3CCCC3)CC2)c(Nc2ccccc2)c1)N1CCC(N2CCCC2)CC1 [UNC1215] | 0 | 0 | 0
37 | O=C(/C=C/c1cccnc1)NCCCCC1CCN(C(=O)c2ccccc2)CC1 [Daporinad] | 29.3 | 29.3 | 29.1
38 | C[C@@H](Oc1ccc2[nH]nc(/C=C/c3cnn(CCO)c3)c2c1)c1c(Cl)cncc1Cl | 7.1 | 9.3 | 7.2
39 | CCN1CCN(Cc2ccc(Nc3ncc(F)c(-c4cc(F)c5nc(C)n(C(C)C)c5c4)n3)nc2)CC1 [Abemaciclib] | 3.3 | 7.3 | 5.6
40 | CO[C@H]1C[C@@H]2CC[C@@H](C)[C@@](O)(O2)C(=O)C(=O)N2CCCC[C@H]2C(=O)O[C@H]([C@H](C)C[C@@H]2CC[C@@H](OP(C)(C)=O)[C@H](OC)C2)CC(=O)[C@H](C)/C=C(\C)[C@@H](O)[C@@H](OC)C(=O)[C@H](C)C[C@H](C)/C=C/C=C/C=C/1C [Ridaforolimus] | 0 | 9.8 | 0.6
41 | COc1cccc2c1C(=O)c1c(O)c3c(c(O)c1C2=O)C[C@@](O)(C(C)=O)C[C@@H]3O[C@H]1C[C@H](N)[C@H](O)[C@H](C)O1 [Daunorubicin] | 9.5 | 11.6 | 10.3
42 | C[C@H]1CN(C2COC2)CCN1c1ccc(Nc2cc(-c3ccnc(N4CCn5c(cc6c5CC(C)(C)C6)C4=O)c3CO)cn(C)c2=O)nc1 [GDC-0853] | 0 | 0 | 0
